# Values of other authors in US20130071904A1, “ACETATE-RESISTANT YEAST STRAIN FOR THE PRODUCTION OF A FERMENTATION PRODUCT” (priority 2010, published 2013).
# Tested on: Saccharomyces cells
# Conditions: Pons et al. 1984
compound,measurement,value
CC(=O)O [Acetate],effect on growth of Saccharomyces cells,inhibits the growth
